Source: PMC9820345, “Metal Complexes of a 5-Nitro-8-Hydroxyquinoline-Proline Hybrid with Enhanced Water Solubility Targeting Multidrug Resistant Cancer Cells” (International Journal of Molecular Sciences, 2022)

Assays:
[1] = Formation constants of Fe(III) complexes by UV-vis spectrophotometric titrations; assay type: physicochemical; settings: I = 0.1 M KCl, 25.0 °C
Method: UV-vis titrations were performed to determine the formation (overall stability) constants (β) for the complexes of HQNO2-L-Pro formed with Fe(III) and Fe(II) ions (Figures S10 and S11). In the latter case, titrations were performed in a laboratory glove box. The calculations were complicated by the overlapping feature of the ligand bands and the charge transfer bands of the complexes. Based on the absorption spectra Figures S10a and S11a), formation of mono, bis, and tris complexes were found in both chemical systems; obtained constants are collected in Table 2. […] Based on the concentration distribution diagrams (see Figure S10b for Fe(III) and Figure S11b for Fe(II)), it can be concluded that the tris complexes are the dominant species at pH 7.4 in the case of Fe(III), while with Fe(II) both tris and bis-ligand species are formed under the conditions of the titrations.
An Agilent Cary 8454 diode array spectrophotometer (Santa Clara, CA, USA) was used to obtain UV-vis spectra in the wavelength range 200–1000 nm, while spectra were recorded for the Fe(II)-containing samples using an Avantes (Avantes B.V., Apeldoorn, The Nederlands) AvaSpec-ULS2048CL-EVO spectrometer with an AvaLight-DHc light source and FDP-7UVIR200-2-VAR transmission dip probe. The titrations for the Fe(II)-containing samples were performed in a laboratory glove box (GP(Campus), Jacomex) (O2 content ≤ 1 ppm). The path length (ℓ) was 1 cm in most cases (the actual ℓ is always indicated in the legends of the figures). The concentrations of the ligands and complexes were between 40 and 200 µM, and 0.2 M KNO3 for the organometallic complexes or 0.1 M KCl for the Fe(II/III), Cu(II), and Zn(II) complexes were used to adjust the constant ionic strength. For HSA containing samples, complex concentrations were 50 µM, and 0.5, and 2 equiv. biomolecules were added for kinetic studies, respectively. For HSA model containing samples, complex concentrations were 50 µM, and the model concentrations were 0–150 µM and 0–500 µM, respectively, and the pH was 7.4 (PBS’). Spectra were always background and baseline corrected. […]

OATP1B1 = target: T1, OATP1B1 (Homo sapiens, UniProt Q9Y6L6); test: OATP uptake assay, OATP1B1; assay type: cell-based; settings: human, 10 μM
T1 construct: expressed in transfected cells; host or cells: A431 epidermoid carcinoma cells
T1 sequence (Q9Y6L6 1-691): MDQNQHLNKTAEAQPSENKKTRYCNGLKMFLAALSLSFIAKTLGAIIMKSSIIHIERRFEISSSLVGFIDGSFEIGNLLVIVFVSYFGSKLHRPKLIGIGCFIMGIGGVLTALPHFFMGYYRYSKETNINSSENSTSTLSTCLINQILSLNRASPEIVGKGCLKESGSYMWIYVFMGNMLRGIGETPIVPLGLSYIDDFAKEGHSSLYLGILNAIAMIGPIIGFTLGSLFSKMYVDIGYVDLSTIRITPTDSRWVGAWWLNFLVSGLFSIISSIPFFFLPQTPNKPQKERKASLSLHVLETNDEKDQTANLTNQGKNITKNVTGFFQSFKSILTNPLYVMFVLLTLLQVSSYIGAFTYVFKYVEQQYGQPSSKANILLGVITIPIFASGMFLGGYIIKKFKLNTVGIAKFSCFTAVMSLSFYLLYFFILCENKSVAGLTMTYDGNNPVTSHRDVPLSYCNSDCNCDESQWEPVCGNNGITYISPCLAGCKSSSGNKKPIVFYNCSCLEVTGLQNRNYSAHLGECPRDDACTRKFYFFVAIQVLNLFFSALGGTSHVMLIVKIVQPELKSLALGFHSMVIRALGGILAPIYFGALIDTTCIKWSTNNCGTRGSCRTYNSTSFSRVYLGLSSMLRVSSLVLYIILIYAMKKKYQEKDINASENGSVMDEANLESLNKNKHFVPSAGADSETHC
Method: Cell lines: A431 cells overexpressing OATP1B1 or OATP2B1, and their mock transfected controls were generated and characterized previously. The cell lines were cultured in DMEM (Gibco, Thermofisher Scientific, Waltham, MA, USA), supplemented with 10% fetal bovine serum, 2 mM L-glutamine, 100 μg/mL streptomycin, and 100 units/mL penicillin at 37 °C and 5% CO2.
OATP uptake assay: Prior to the experiment, A431 cells (8 × 10^4/well) were seeded on 96-well plates in 200 μL cell culture medium. After 16–24 h, the cells were washed with 200 μL PBS, three times and pre-incubated with 20–200 μM HQNO2-L-Pro, or buffer without HQNO2-L-Pro for 5 min at 37 °C in 50 μL HBSS (Hank’s Balanced Salt Solution, pH 7.4; OATP1B1) or uptake buffer (pH 5.5; OATP2B1 [63]). The reaction was started by the addition of disulfopyrene (6,8-dihydroxy-1,3-pyrenedisulfonic acid disodium salt, Sigma, Darmstadt, Germany) at a final concentration of 10 μM (OATP1B1) or pyranine (8-hydroxypyrene-1,3-pyrenetrisulfonic acid trisodium salt, Sigma, Darmstadt, Germany) at a final concentration of 20 μM (OATP2B1), and the cells were further incubated at 37 °C for 10 min (OATP1B1) or 15 min (OATP2B1). The reaction was stopped by removing the supernatant after which the cells were washed three times with ice-cold PBS. Fluorescence (in 200 μL PBS) was determined using an Enspire plate reader (PerkinElmer, Waltham, MA, USA) with excitation/emission wavelengths of 460/510 nm. OATP-dependent transport was calculated by subtracting fluorescence measured in mock transfected cells. Transport activity was calculated based on the fluorescence signal in the absence (100%) of HQNO2-L-Pro. Experiments were repeated in at least three biological replicates.

logβ [M(HL)2] [1]: 38.76 ± 0.03
logβ [M(HL)3] [1]: 55.66 ± 0.03
logβ [M(HL)] [1]: 19.75 ± 0.03
activity at 10 min, 100 µM (OATP1B1; A431 cells overexpressing OATP1B1, pH 7.4, probe disulfopyrene, 100 μM, absence of compound = 100%, n = 3, ± SD, read-out: transport activity % OATP1B1): 88.1 ± 5.9%
activity at 10 min, 10 µM (OATP1B1; A431 cells overexpressing OATP1B1, pH 7.4, probe disulfopyrene, absence of compound = 100%, n = 3, ± SD, read-out: transport activity % OATP1B1): 106 ± 4.1%
inhibition at 10 min, 100 µM (OATP1B1; probe disulfopyrene, at 100 μM, A431 cells overexpressing OATP1B1, pH 7.4, read-out: inhibition of OATP1B1 function): < 20%
Compound: O=C(O)[C@@H]1CCCN1Cc1cc([N+](=O)[O-])c2cccnc2c1O [HQNO2-L-Pro, (2S)-1-((8-hydroxy-5-nitroquinolin-7-yl)methyl)pyrrolidin-1-ium-2-carboxylate]
